Reference: patent publication US8791144B2, “Substituted N-phenyl-1-(4-Pyridinyl)-1H-pyrazol-3-amines” (Janssen Pharmaceutica NV, priority 2009, dated 2014)

Columns and labels:
hα7-wt nAChR [1] = target: T1, hα7-wt nAChR (Homo sapiens, UniProt P36544); experiment: Patch-clamp current recording (whole-cell voltage clamp), potentiation of choline current and PAM type; type: cell-based; parameters: key: Type 0 compounds minimally enhance the effect size of the current elicited by 1 mM choline.; Type 1 compounds enhance the effect size of the current elicited by 1 mM choline but minimally alter the kinetics of the receptor.; Type 2 compounds enhance the effect size of the current elicited by 1 mM choline while reducing the rate and/or the extent of desensitization.; Type 3 compounds enhance the effect size of the current elicited by 1 mM choline. When tested at higher concentrations up to 10 μM they completely inhibit desensitization, in particular a 1 mM choline application of 250 milliseconds.; Type 4 compounds allow for an initial desensitization of the receptor followed by a re-opening of the receptor during agonist application; settings: hα7-wt nAChR-expressing GH4C1 cells, 1 mM choline
T1 sequence (P36544 23-502): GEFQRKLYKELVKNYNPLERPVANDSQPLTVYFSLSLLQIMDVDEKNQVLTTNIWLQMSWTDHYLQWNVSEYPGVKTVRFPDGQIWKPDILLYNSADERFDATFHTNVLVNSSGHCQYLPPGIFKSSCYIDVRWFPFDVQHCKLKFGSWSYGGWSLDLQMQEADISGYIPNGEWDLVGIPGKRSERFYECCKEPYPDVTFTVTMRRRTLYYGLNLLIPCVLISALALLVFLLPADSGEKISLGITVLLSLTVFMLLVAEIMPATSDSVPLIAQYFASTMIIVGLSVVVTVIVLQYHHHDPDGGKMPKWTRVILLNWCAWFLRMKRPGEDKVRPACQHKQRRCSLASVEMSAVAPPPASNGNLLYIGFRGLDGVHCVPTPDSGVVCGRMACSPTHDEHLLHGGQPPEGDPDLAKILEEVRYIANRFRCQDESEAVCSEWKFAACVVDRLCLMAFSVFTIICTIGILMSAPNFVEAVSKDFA
Protocol: The compounds of the present invention are classified as type 0-4, based on qualitative kinetic properties, as determined by whole-cell voltage-clamp recordings. This classification is based on the effect of an α7 PAM compound, as described hereinbefore, on the signal elicited by an agonist application. In particular, said agonist is choline at a concentration of 1 mM. In a preferred experimental setting, said α7 PAM compound and choline are simultaneously applied to the cell, as described hereinafter. Desensitization is defined as the closure of the receptor upon activation during the application of the agonist in whole-cell voltage-clamp electrophysiology measurements seen as the reduction of the […] current after initial activation by the agonist.
The definition of the PAM types 0-4 is described hereinafter: • Type 0 compounds minimally enhance the effect size of the current elicited by 1 mM choline. • Type 1 compounds enhance the effect size of the current elicited by 1 mM choline but minimally alter the kinetics of the receptor. In particular, the rate and the extent of desensitization, elicited by the agonist, is not affected. The compound-modulated response to 1 mM choline, therefore, is a close to linear scaling of the 1 mM choline response in absence of the α7 PAM compound. • Type 2 compounds enhance the effect size of the current elicited by 1 mM choline while reducing the rate and/or the extent of desensitization. • Type 3 compounds enhance the effect size of the current elicited by 1 mM choline. […] At low-potency concentrations of the α7 PAM compound, the agonist-induced activation, which is followed by desensitization, can still be separated from the compound-induced re-opening as an initial inward current-maximum. At higher potency concentrations of the α7 PAM compound, the re-opening occurs faster than the closure due to desensitization so that the initial current-maximum disappears.
A compound was considered to have interesting PAM-like activity when the potentiation of the peak current was at least 200% compared to the control choline response (=100%). Such compounds are classified as belonging to a particular PAM type in the Experimental Part. Compounds not meeting the condition are not classified as belonging to a particular PAM-type.
The compounds also have a potentiating effect on the response to choline when measured by whole-cell patch clamp electrophysiology in GH4C1 cells stably over-expressing the human wild-type α7 receptor.
Patch-clamp recording from mammalian cells has provided a powerful means of assessing the function of membrane-bound proteins thought to be subunits of ligand-gated ion channels. Activation of such proteins by endogenous or exogenous ligands cause opening of a pore associated with the receptor through which ions flow down their electrochemical gradient. In the case of the hα7-wt nAChR-expressing GH4C1 recombinant cell line the preferential permeability to calcium of this receptor means that calcium flows into the cell upon activation by ACh, choline and other nicotinic ligands giving rise to a calcium current. Since this receptor rapidly desensitizes in the presence of agonist it is important an application system is used which is capable of very rapid switching of solutions (<100 ms) to prevent partial or full desensitisation of receptor responses coincident with the time of agonist application. Consequently, a second convenient technique to assess the enhancement of nicotinic efficacy is patch-clamp recording from hα7-wt nAChR-expressing GH4C1 cells coupled with a rapid-application system.
• a) Assay Buffers • The external recording solution consisted of 152 mM NaCl, 5 mM KCl, 1 mM MgCl2, 1 mM Calcium, 10 mM HEPES; pH 7.3. […]

hα7-wt nAChR [2] = target: T1, hα7-wt nAChR; experiment: Ca2+ flux imaging (FDSS): potentiation of the choline response; type: cell-based; settings: Ca2+ assay as described in D.1; potentiation of choline response, hα7-wt nAChR; read-out: Potency (pEC50) (converted)
Protocol: • a) Assay Buffer • Hanks buffered saline solution (HBSS, Invitrogen, Belgium), supplemented with 10 mM HEPES (Invitrogen, Belgium), CaCl2 to a final concentration of 5 mM, 0.1% Bovine serum albumin (Sigma-Aldrich NV, Belgium). • b) Calcium-Sensitive Dye—Fluo-4AM • Fluo-4AM (Molecular Probes, USA) was dissolved in DMSO containing 10% Pluronic acid (Molecular Probes, USA) to give a stock solution which was diluted in assay buffer supplemented with 5 mM probenicid (Sigma, Aldrich NV, Belgium) to give a final concentration of 2 μM. • c) 384-Well Plates • Black 384 well plate black/clear plates, PDL pre-coated (Corning, Incorporated, USA) • d) Calcium Flux Measurement • A Functional drug screening system (FDSS, Hamamatsu) was used to measure intracellular free-calcium flux signals. Method
Monolayers of hα7-wt nAChR-expressing cells were grown in multi-well plates, in particular black-sided, transparent bottomed 384 well plates coated with poly-D-lysine for 24 hours prior to loading with a fluorescent calcium indicator, in a particular embodiment loading with fluo-4AM for up to 120 minutes.
PAM activity was detected in real time by applying the compounds to be tested to the loaded cells along with a α7 nicotinic receptor agonist during constant monitoring of cellular fluorescence in a FDSS. Compounds giving peak fluorescent responses greater than the response due to agonist alone, were considered to be α7 nAChR PAM's. In a particular embodiment, the α7 nicotinic receptor agonist was choline, a more particular embodiment choline applied at a sub-maximal concentration of 100 μM. In a further setting of the present invention the compounds to be tested were applied prior to the α7 nicotinic receptor agonist, in a particular embodiment up to 10 minutes prior to the agonist.
A control response to choline was calculated on each plate from the difference in peak in fluorescence in wells receiving either choline or assay buffer alone. Compounds of the present invention were tested at a concentration range from 0.01 μM to 30 μM. Compounds were considered to have an interesting activity when they potentiated the choline signal at least with 200% when tested at a concentration of 30 μM (the efficacy of 100 μM choline was defined as 100% in the absence of a PAM). An EC50 (or pEC50) was determined as a concentration relating to half the maximal effect, when a clear sigmoidal curve with top plateau was obtained.

SMILES	EC50 (hα7-wt nAChR [2])	melting point	PAM type (hα7-wt nAChR [1])
CCNC(=O)Cc1cc(Nc2cccc(Cl)c2F)nn1-c1ccnc(C)c1 [Compound 73, 3-[(3-chloro-2-fluorophenyl)amino]-N-ethyl-1-(2-methyl-4-pyridinyl)-1H-pyrazole-5-acetamide]	1.26 µM	205.1 °C	3
CCNC(=O)Cc1cc(Nc2cccc(OC(F)(F)F)c2)nn1-c1cc(C)nc(C)c1 [Compound 114, 1-(2,6-dimethyl-4-pyridinyl)-N-ethyl-3-[[3-(trifluoromethoxy)phenyl]amino]-1H-pyrazole-5-acetamide]	0.309 µM	224.2 °C	2
CC[C@H](O)Cc1cc(Nc2cc(OC)cc(C(F)(F)F)c2)nn1-c1ccnc(C)c1 [Compound 39, (alphaS)-alpha-ethyl-3-[[3-methoxy-5-(trifluoromethyl)phenyl]amino]-1-(2-methyl-4-pyridinyl)-1H-pyrazole-5-ethanol]	0.933 µM	129.2 °C	4
CNC(=O)Cc1cc(Nc2cccc(OC(F)(F)F)c2)nn1-c1cc(C)nc(C)c1 [Compound 112, 1-(2,6-dimethyl-4-pyridinyl)-N-methyl-3-[[3-(trifluoromethoxy)phenyl]amino]-1H-pyrazole-5-acetamide]	1.29 µM	222 °C	2
CC[C@H](O)Cc1cc(Nc2cc(F)c(F)c(F)c2)nn1-c1ccnc(C)c1 [Compound 20, (alphaS)-alpha-ethyl-1-(2-methyl-4-pyridinyl)-3-[(3,4,5-trifluorophenyl)amino]-1H-pyrazole-5-ethanol]	0.851 µM	–	2
CNC(=O)Cc1cc(Nc2cccc(C(F)(F)F)c2)nn1-c1ccnc(C)c1 [Compound 42, N-methyl-1-(2-methyl-4-pyridinyl)-3-[[3-(trifluoromethyl)phenyl]amino]-1H-pyrazole-5-acetamide]	1.86 µM	–	4
CC[C@H](O)Cc1cc(Nc2ccc(Br)cc2C#N)nn1-c1ccnc(C)c1 [Compound 124, 5-bromo-2-[[5-[(2S)-2-hydroxybutyl]-1-(2-methyl-4-pyridinyl)-1H-pyrazol-3-yl]amino]-benzonitrile]	1.66 µM	–	2
Cc1cc(-n2nc(Nc3cccc(C(F)(F)F)c3)cc2CCC(=O)N(C)C)ccn1 [Compound 49, N,N-dimethyl-1-(2-methyl-4-pyridinyl)-3-[[3-(trifluoromethyl)phenyl]amino]-1H-pyrazole-5-propanamide]	0.295 µM	–	4
CCNC(=O)Cc1cc(Nc2cccc(Cl)c2F)nn1-c1cc(C)nc(C)c1 [Compound 75, 3-[(3-chloro-2-fluorophenyl)amino]-1-(2,6-dimethyl-4-pyridinyl)-N-ethyl-1H-pyrazole-5-acetamide]	0.372 µM	–	2
Cc1cc(-n2nc(Nc3ccc(F)c(F)c3)cc2CCC(=O)N(C)C)ccn1 [Compound 30, 3-[(3,4-difluorophenyl)amino]-N,N-dimethyl-1-(2-methyl-4-pyridinyl)-1H-pyrazole-5-propanamide]	0.977 µM	–	4
Cc1cc(-n2nc(Nc3cccc(Cl)c3F)cc2CCC(=O)N(C)C)ccn1 [Compound 84, 3-[(3-chloro-2-fluorophenyl)amino]-N,N-dimethyl-1-(2-methyl-4-pyridinyl)-1H-pyrazole-5-propanamide]	0.661 µM	–	4

Continued, in another order:

EC50 (hα7-wt nAChR [2])	melting point	SMILES	PAM type (hα7-wt nAChR [1])
0.17 µM	146.4 °C	COc1cc(Nc2cc(CCC(=O)N(C)C)n(-c3ccnc(C)c3)n2)cc(C(F)(F)F)c1 [Compound 9, 3-[[3-methoxy-5-(trifluoromethyl)phenyl]amino]-N,N-dimethyl-1-(2-methyl-4-pyridinyl)-1H-pyrazole-5-propanamide]	4
0.24 µM	237.7 °C	Cc1cc(-n2nc(Nc3ccc4c(c3)OC(F)(F)O4)cc2CC(=O)NC2CCC2)ccn1 [Compound 102, N-cyclobutyl-3-[(2,2-difluoro-1,3-benzodioxol-5-yl)amino]-1-(2-methyl-4-pyridinyl)-1H-pyrazole-5-acetamide]	2
0.148 µM	248.7 °C	COc1cc(Cl)cc(Nc2cc(CC(=O)NCC3CC3)n(-c3ccnc(C)c3)n2)c1 [Compound 81, 3-[(3-chloro-5-methoxyphenyl)amino]-N-(cyclopropylmethyl)-1-(2-methyl-4-pyridinyl)-1H-pyrazole-5-acetamide]	0
0.0759 µM	228.3 °C	COc1cc(Nc2cc(CC(=O)NCC3CC3)n(-c3ccnc(C)c3)n2)cc(C(F)(F)F)c1 [Compound 5, N-(cyclopropylmethyl)-3-[[3-methoxy-5-(trifluoromethyl)phenyl]amino]-1-(2-methyl-4-pyridinyl)-1H-pyrazole-5-acetamide]	4
0.603 µM	–	COc1cc(Cl)cc(Nc2cc(CC(=O)NC3CC3)n(-c3ccnc(C)c3)n2)c1 [Compound 77, 3-[(3-chloro-5-methoxyphenyl)amino]-N-cyclopropyl-1-(2-methyl-4-pyridinyl)-1H-pyrazole-5-acetamide]	4
0.295 µM	–	COc1cc(Cl)cc(Nc2cc(CCC(=O)N(C)C)n(-c3ccnc(C)c3)n2)c1 [Compound 85, 3-[(3-chloro-5-methoxyphenyl)amino]-N,N-dimethyl-1-(2-methyl-4-pyridinyl)-1H-pyrazole-5-propanamide]	4
0.162 µM	–	CC[C@@H](O)Cc1cc(Nc2cc(OC)cc(C(F)(F)F)c2)nn1-c1ccnc(C)c1 [Compound 36, (alphaR)-alpha-ethyl-3-[[3-methoxy-5-(trifluoromethyl)phenyl]amino]-1-(2-methyl-4-pyridinyl)-1H-pyrazole-5-ethanol]	2
